Source: patent publication US10392368B2, “Pyrazolo and triazolo bicyclic compounds as JAK kinase inhibitors” (THERAVANCE BIOPHARMA R&D IP, LLC, priority 2017, dated 2019)

Experiments:
JAK2 = target: T1, JAK2 (Homo sapiens, UniProt O60674); assay: Biochemical JAK2 kinase assay (LanthaScreen); settings: for Ki: read-out: JAK 2 (pKi) (converted)
T1 construct: GST; purchased Life Technologies
Method in brief: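 GST-tagged recombinant JAK2 pre-incubated 1 h at ambient temperature with compound and GFP-STAT1 peptide in HEPES pH 7.5/MgCl2 buffer, then ATP added for a 1 h reaction with 1% DMSO. TR-FRET read after EDTA and Tb-anti-pSTAT1 (pTyr701) addition; IC50 from 4-parameter fit, converted to pKi by Cheng-Prusoff.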

JAK1 = target: T2, JAK1 (Homo sapiens, UniProt P23458); assay: Biochemical JAK1 kinase assay (LanthaScreen); settings: for Ki: read-out: JAK 1 (pKi) (converted)
T2 construct: GST; purchased Life Technologies
T2 sequence (P23458 whole entry): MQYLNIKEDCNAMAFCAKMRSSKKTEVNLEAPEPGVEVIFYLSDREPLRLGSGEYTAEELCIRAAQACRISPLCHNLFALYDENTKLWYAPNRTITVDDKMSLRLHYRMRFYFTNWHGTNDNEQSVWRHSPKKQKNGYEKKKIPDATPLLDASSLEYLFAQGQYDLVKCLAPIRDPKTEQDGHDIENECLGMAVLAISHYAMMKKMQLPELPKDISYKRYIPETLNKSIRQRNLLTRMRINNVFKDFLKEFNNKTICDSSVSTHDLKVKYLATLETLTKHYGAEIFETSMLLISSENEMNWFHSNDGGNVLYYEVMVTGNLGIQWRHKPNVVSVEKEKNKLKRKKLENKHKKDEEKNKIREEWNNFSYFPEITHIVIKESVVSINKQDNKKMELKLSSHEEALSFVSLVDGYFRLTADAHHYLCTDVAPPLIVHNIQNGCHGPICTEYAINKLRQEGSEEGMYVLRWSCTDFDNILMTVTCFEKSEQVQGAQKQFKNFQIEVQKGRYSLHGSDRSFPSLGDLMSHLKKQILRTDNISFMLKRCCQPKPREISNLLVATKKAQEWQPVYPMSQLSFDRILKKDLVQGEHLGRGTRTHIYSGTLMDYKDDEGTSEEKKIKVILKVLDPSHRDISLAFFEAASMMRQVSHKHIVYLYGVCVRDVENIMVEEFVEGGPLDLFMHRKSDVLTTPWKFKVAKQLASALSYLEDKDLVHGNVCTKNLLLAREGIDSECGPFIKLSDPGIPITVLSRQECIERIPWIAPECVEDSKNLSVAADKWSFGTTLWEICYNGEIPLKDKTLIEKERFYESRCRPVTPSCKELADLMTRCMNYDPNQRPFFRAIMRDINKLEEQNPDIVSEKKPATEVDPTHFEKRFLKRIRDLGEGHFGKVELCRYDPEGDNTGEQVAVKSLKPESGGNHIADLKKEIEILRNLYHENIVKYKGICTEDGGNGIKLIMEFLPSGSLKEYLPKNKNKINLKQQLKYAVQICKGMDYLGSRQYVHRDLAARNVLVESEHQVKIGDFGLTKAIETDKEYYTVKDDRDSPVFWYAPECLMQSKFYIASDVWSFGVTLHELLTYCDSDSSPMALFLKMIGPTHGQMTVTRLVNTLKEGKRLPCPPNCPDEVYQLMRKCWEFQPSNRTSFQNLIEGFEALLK
Method in brief: (§1)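 Compounds were preincubated with the GST-tagged kinase and GFP-labelled STAT1 peptide for one hour before ATP initiated a one-hour reaction at ambient temperature. Phosphorylation was quantified by TR-FRET with a Tb-labelled pTyr701 antibody. Ki values were derived from IC50 using Cheng-Prusoff.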

JAK3 = target: T3, JAK3 (Homo sapiens, UniProt P52333); assay: Biochemical JAK3 kinase assay (LanthaScreen); parameters: GST; purchased Life Technologies; settings: for Ki: read-out: JAK 3 (pKi) (converted); for JAK3 (pKi)-JAK1 (pKi): selectivity JAK3 over JAK1, difference of pKi
T3 sequence (P52333 1-1124): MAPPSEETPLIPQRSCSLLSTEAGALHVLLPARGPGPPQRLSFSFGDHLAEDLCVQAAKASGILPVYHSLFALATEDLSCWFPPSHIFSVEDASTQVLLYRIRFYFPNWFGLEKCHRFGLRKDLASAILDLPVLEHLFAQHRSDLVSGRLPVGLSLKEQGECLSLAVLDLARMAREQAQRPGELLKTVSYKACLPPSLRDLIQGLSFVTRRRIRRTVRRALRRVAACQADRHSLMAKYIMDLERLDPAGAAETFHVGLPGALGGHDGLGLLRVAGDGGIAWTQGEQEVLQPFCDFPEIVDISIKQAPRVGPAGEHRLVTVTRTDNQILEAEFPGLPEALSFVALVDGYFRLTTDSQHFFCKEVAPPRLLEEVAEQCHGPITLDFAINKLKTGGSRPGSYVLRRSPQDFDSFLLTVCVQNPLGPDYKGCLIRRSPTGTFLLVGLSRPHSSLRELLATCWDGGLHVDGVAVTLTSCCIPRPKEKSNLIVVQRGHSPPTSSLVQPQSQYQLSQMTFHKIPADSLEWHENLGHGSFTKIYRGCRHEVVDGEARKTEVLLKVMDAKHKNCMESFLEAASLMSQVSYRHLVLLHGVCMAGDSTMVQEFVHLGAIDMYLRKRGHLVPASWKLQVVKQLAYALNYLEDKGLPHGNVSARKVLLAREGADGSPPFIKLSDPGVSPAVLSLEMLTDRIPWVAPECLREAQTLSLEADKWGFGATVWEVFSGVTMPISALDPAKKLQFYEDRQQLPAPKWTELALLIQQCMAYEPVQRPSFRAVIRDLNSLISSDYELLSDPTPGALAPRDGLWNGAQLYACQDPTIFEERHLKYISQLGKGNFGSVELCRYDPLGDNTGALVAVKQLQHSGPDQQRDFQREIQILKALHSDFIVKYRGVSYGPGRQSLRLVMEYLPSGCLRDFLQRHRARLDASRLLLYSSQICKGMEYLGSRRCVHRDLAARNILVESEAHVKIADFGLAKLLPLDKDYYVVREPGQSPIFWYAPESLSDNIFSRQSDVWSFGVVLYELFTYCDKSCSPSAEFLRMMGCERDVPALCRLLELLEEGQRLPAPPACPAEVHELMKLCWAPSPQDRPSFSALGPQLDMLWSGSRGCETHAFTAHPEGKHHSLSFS
Method in brief: as §1

Tyk2 = target: T4, Tyk2 (Homo sapiens, UniProt P29597); assay: Biochemical Tyk2 kinase assay (LanthaScreen); settings: for Ki: read-out: Tyk 2 (pKi) (converted)
T4 construct: GST; purchased Life Technologies
T4 sequence (P29597 whole entry): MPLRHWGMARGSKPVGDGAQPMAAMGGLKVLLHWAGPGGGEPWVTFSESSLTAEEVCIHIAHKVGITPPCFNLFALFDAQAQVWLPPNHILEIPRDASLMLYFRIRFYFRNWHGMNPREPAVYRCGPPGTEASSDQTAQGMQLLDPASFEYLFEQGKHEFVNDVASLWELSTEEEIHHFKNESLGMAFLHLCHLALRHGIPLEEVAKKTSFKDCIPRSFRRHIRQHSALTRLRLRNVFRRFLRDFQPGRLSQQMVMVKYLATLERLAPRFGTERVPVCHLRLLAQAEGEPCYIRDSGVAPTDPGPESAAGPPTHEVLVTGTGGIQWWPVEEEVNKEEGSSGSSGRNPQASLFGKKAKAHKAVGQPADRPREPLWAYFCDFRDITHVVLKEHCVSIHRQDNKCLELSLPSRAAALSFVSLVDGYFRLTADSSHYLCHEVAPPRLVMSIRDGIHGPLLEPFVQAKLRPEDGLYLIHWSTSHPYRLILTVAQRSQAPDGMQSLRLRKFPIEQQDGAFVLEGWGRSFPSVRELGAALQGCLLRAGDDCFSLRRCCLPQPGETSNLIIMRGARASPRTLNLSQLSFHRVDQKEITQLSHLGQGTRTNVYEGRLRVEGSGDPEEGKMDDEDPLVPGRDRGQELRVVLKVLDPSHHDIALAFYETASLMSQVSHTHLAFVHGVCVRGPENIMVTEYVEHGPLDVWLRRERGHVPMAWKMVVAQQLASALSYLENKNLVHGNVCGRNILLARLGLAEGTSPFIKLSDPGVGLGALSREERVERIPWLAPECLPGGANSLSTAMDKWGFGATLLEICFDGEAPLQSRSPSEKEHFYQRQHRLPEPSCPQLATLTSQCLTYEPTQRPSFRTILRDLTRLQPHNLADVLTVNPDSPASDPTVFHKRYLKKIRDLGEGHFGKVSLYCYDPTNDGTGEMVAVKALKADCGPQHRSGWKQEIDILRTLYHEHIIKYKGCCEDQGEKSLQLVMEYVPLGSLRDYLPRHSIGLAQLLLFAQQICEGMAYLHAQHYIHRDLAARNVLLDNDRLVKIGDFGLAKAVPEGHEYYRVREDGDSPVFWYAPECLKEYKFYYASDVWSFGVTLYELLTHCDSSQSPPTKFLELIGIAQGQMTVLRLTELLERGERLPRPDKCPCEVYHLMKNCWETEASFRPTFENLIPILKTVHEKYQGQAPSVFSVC
Method in brief: as §1

[1] = tested on: IL-2 stimulated pSTAT5 in Tall-1 T cells; assay: Cellular JAK3 potency assay: inhibition of IL-2 stimulated pSTAT5 in Tall-1 T cells; type: cell-based, human; settings: for IC50: Homo sapiens, TALL-1, IL-2 stimulated pSTAT5, Tall-1 T cells, read-out: Tall-1 (pIC50) (converted); for Tall-1 (pIC50): IL-2 stimulated pSTAT5, Tall-1 T cells
Method in brief: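 Tall-1 human T cells (45,000/well) in phenol red-free DMEM with 10% FBS were preincubated with compound 1 h at 37 °C, then stimulated with IL-2 (final 300 ng/ml) for 30 min. Lysate pSTAT5 read by AlphaLisa; IC50 from inhibition curves, reported as pIC50 (mean±SD).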

T1 sequence (O60674 whole entry): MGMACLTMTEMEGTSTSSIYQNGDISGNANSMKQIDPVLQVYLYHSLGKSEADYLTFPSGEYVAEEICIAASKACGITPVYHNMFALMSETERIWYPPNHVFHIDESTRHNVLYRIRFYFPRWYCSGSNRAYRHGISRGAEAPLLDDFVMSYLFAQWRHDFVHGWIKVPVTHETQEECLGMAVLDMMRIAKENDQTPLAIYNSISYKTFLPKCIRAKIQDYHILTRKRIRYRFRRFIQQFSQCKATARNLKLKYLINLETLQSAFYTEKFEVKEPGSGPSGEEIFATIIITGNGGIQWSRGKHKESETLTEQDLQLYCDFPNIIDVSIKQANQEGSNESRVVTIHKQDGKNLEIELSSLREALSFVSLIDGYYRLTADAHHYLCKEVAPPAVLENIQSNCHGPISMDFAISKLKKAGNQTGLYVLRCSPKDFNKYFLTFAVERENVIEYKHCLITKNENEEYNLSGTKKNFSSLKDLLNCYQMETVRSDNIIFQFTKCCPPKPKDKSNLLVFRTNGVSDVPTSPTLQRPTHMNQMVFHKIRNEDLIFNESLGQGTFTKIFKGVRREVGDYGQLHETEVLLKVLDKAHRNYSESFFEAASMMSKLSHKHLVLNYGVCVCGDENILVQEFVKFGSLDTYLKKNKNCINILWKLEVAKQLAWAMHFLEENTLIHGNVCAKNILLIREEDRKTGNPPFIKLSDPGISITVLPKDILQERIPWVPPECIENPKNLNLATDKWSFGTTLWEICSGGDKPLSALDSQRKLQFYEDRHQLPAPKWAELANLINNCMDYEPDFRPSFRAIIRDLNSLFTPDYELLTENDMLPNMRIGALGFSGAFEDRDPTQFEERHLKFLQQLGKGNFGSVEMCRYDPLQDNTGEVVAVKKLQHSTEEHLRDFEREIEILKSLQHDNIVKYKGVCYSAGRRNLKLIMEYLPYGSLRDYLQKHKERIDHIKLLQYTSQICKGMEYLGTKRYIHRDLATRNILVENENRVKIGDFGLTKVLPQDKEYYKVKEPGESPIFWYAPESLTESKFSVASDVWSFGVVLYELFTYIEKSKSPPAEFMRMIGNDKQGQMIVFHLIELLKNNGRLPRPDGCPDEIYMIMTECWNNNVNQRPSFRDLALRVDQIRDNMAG

Row | SMILES | Ki (JAK2) [nM] | Ki (JAK1) [nM] | Ki (JAK3) [nM] | JAK3 (pKi)-JAK1 (pKi) (JAK3) | Ki (Tyk2) [nM] | IC50 [1] [nM] | JAK 2 (pKi) (JAK2) | JAK 1 (pKi) (JAK1) | JAK 3 (pKi) (JAK3) | Tyk 2 (pKi) (Tyk2) | Tall-1 (pIC50) [1]
1 | C=CC(=O)N1CC(F)(C(=O)Nc2cc(-c3ccc(O)cc3)cc3[nH]ncc23)C1 [Compound 12-48] | > 100 | > 100 | 0.1 to 1 | A (a value of 3 or above) | > 100 | < 31.6 | – | – | – | – | –
2 | CN(C)C/C=C/C(=O)N1CC(S(=O)(=O)c2cc(-c3ccc(O)cc3)cc3[nH]ncc23)C1 [Compound 12-49] | > 100 | > 100 | 0.1 to 1 | A (a value of 3 or above) | > 100 | 200 to 1000 | – | – | – | – | –
3 | C=CC(=O)N1CC(S(=O)(=O)c2cc(-c3ccc(O)cc3)cc3[nH]ncc23)C1 [Compound 12-50] | > 100 | > 100 | < 0.1 | A (a value of 3 or above) | > 100 | 31.6 to 200 | – | – | – | – | –
4 | CN(C)C/C=C/C(=O)N1CC(Sc2cc(-c3ccc(O)cc3)cc3[nH]ncc23)C1 [Compound 12-51] | – | – | – | A (a value of 3 or above) | – | – | D (a pKi value between 7 and 8 (Ki between 100 nM and 10 nM)) | D (a pKi value between 7 and 8 (Ki between 100 nM and 10 nM)) | A (a pKi value≥10 (Ki≤0.1 nM)) | E (a pKi value of 7 or below (Ki of 100 nM or above)) | B (a pIC50 value between 6.7 (included) and 7.5 (IC50 between 200 nM and 32 nM))
5 | CN(C)C/C=C/C(=O)N1CC2(CCC2Oc2cc(-c3ccc(O)cc3)cc3[nH]ncc23)C1 (stereo not drawn) [Compound 12-53] | 1 to 10 | > 100 | 0.1 to 1 | B (a value of 2.3 to 3) | > 100 | < 31.6 | – | – | – | – | –
6 | C=CC(=O)N1CC2(CCC2Oc2cc(-c3ccc(O)cc3)cc3[nH]ncc23)C1 (stereo not drawn) [Compound 12-54] | 10 to 100 | > 100 | 0.1 to 1 | B (a value of 2.3 to 3) | > 100 | < 31.6 | – | – | – | – | –
7 | C=CC(=O)N1CCC[C@@H](C(=O)Nc2cc(-c3ccc(O)cc3)cc3[nH]ncc23)[C@H]1C [Compound 12-57] | 10 to 100 | > 100 | 0.1 to 1 | A (a value of 3 or above) | > 100 | 31.6 to 200 | – | – | – | – | –
8 | C=CC(=O)N1CCC(F)(C(=O)Nc2cc(-c3ccc(O)cc3)cc3[nH]ncc23)CC1 [Compound 12-58] | 10 to 100 | > 100 | < 0.1 | A (a value of 3 or above) | > 100 | 31.6 to 200 | – | – | – | – | –
9 | C=CC(=O)N1C[C@H](C(=O)Nc2cc(-c3ccc(O)cc3)cc3[nH]ncc23)OC[C@@H]1C [Compound 12-60] | > 100 | > 100 | 0.1 to 1 | A (a value of 3 or above) | > 100 | 31.6 to 200 | – | – | – | – | –
10 | C=CC(=O)N1C[C@@H](C)O[C@@H](C(=O)Nc2cc(-c3ccc(O)cc3)cc3[nH]ncc23)C1 [Compound 12-61] | > 100 | > 100 | < 0.1 | A (a value of 3 or above) | > 100 | 31.6 to 200 | – | – | – | – | –
11 | C=CC(=O)N1CCOC[C@H]1C(=O)Nc1cc(-c2ccc(O)cc2)cc2[nH]ncc12 [Compound 12-63] | > 100 | > 100 | 0.1 to 1 | A (a value of 3 or above) | > 100 | 31.6 to 200 | – | – | – | – | –
12 | C=CC(=O)N1CCSC[C@H]1C(=O)Nc1cc(-c2ccc(O)cc2)cc2[nH]ncc12 [Compound 12-64] | > 100 | > 100 | < 0.1 | A (a value of 3 or above) | > 100 | < 31.6 | – | – | – | – | –
13 | CN(C)C/C=C/C(=O)N1CCSC[C@@H]1C(=O)Nc1cc(-c2ccc(O)cc2)cc2[nH]ncc12 [Compound 12-65] | > 100 | > 100 | 0.1 to 1 | A (a value of 3 or above) | > 100 | 200 to 1000 | – | – | – | – | –
14 | C=CC(=O)N1CCSCC1C(=O)Nc1cc(-c2ccc(O)cc2)cc2[nH]ncc12 (stereo not drawn) [Compound 12-66] | > 100 | > 100 | 0.1 to 1 | A (a value of 3 or above) | > 100 | 31.6 to 200 | – | – | – | – | –
15 | CN(C)C/C=C/C(=O)N1CC(F)(C(=O)Nc2cc(-c3ccc(O)cc3)cc3[nH]ncc23)C1 [Compound 12-67] | > 100 | > 100 | 0.1 to 1 | A (a value of 3 or above) | > 100 | 31.6 to 200 | – | – | – | – | –
16 | C=CC(=O)N1CC(C)(C(=O)Nc2cc(-c3ccc(O)cc3)cc3[nH]ncc23)C1 [Compound 12-68] | > 100 | > 100 | 0.1 to 1 | A (a value of 3 or above) | > 100 | 200 to 1000 | – | – | – | – | –
17 | C=CC(=O)N1CC(CSc2cc(-c3ccc(O)c(Cl)c3)nc3[nH]ncc23)C1 [Compound 13-1] | – | – | – | A (a value of 3 or above) | – | – | E (a pKi value of 7 or below (Ki of 100 nM or above)) | E (a pKi value of 7 or below (Ki of 100 nM or above)) | B (a pKi value between 9 and 10 (Ki between 1 nM and 0.1 nM)) | E (a pKi value of 7 or below (Ki of 100 nM or above)) | B (a pIC50 value between 6.7 (included) and 7.5 (IC50 between 200 nM and 32 nM))
18 | C=CC(=O)N1CCO[C@@H](C(=O)Nc2cc(-c3ccc(O)c(Cl)c3)cc3[nH]ncc23)C1 [Compound 13-2] | – | – | – | A (a value of 3 or above) | – | – | E (a pKi value of 7 or below (Ki of 100 nM or above)) | E (a pKi value of 7 or below (Ki of 100 nM or above)) | B (a pKi value between 9 and 10 (Ki between 1 nM and 0.1 nM)) | E (a pKi value of 7 or below (Ki of 100 nM or above)) | A (a pIC50 value≥7.5 (IC50≤32 nM))
19 | CN(C)C/C=C/C(=O)N1CC(CSc2cc(-c3ccc(O)cc3)cc3[nH]ncc23)C1 [Compound 13-4] | – | – | – | A (a value of 3 or above) | – | – | D (a pKi value between 7 and 8 (Ki between 100 nM and 10 nM)) | E (a pKi value of 7 or below (Ki of 100 nM or above)) | A (a pKi value≥10 (Ki≤0.1 nM)) | E (a pKi value of 7 or below (Ki of 100 nM or above)) | B (a pIC50 value between 6.7 (included) and 7.5 (IC50 between 200 nM and 32 nM))
20 | CN(C)C/C=C/C(=O)N1CC(CSc2cc(-c3ccc(O)c(F)c3)cc3[nH]ncc23)C1 [Compound 13-5] | – | – | – | A (a value of 3 or above) | – | – | D (a pKi value between 7 and 8 (Ki between 100 nM and 10 nM)) | E (a pKi value of 7 or below (Ki of 100 nM or above)) | A (a pKi value≥10 (Ki≤0.1 nM)) | E (a pKi value of 7 or below (Ki of 100 nM or above)) | B (a pIC50 value between 6.7 (included) and 7.5 (IC50 between 200 nM and 32 nM))
